Consider seven molecules from PubChem BioAssay AID2060485 (Molecular Pharmacology Branch, DTP, NCI, 2025).

Where “and” joins values, the source holds several entries; their conditions need not be identical. Equal values may be shown once.

The subject of the assay is A375 multi-cell spheroids with HUVEC/MSC, viability. As to the kind of experiment: Anticancer human tumor A375 cell line growth inhibition [GQUAD].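 For all read-outs here: spheroids exposed to compounds for seven days before readout.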 The note with it: for viability, T/C: stronger effect = lower value. From the text: DNA G-quadruplex Stabilizer Agents in Combinations in Complex Spheroids
A high-throughput screen of multi-cell type tumor spheroids was designed to identify active combinations of DNA G-quadruplex stabilizer agents and targeted small molecules. Complex spheroids include a stromal component modeled by human endothelial cells (HUVEC) and fibroblasts modeled by human mesenchymal stem cells (MSCs). The concentration ranges selected for each drug and investigational agent were based upon clinically achievable concentrations if the clinical Cmax of the agent was known.
Compounds. The drugs and investigational agents: pidnarulex (CX-5461; NSC782164), APTO-253 (NSC789042), BRACO-19 (NSC847499), peposertib (NSC802822), ceralasertib (NSC780249), elimusertib (NSC800525), camonsertib (NSC841442), AZD-1390 (NSC803789), olaparib (NSC753686), talazoparib (NSC767125), ART-558 (NSC835418), sotorasib (NSC818433), MRTX-1133 (NSC836407), SN-38 (NSC673596), topotecan (NSC609699), etoposide (NSC141540), doxorubicin (NSC123127), gemcitabine (NSC613327), 5-fluorouracil (NSC19893), paclitaxel (NSC125973), vemurafenib (NSC761431), panobinostat (NSC761190), R-306465 (JNJ-16241199; NSC773264), adavosertib (NSC754352), TP-3654 (NSC805149), carboplatin (NSC241240), KSQ-4279 (NSC840948), and staurosporine (NSC755774) were obtained from the National Cancer Institute (NCI) Developmental Therapeutics Program Chemical Repository (34). The FDA-approved anticancer drug set is available from the NCI Developmental Therapeutics Program. […] The stock solutions were prepared in dimethyl sulfoxide (DMSO, Sigma-Aldrich, St. Louis, MO, cat. D2650) at 800-fold the tested concentration and stored at -70 degrees C prior to their use. All drugs and investigational agents were tested over a range starting from a high concentration at or near the clinical Cmax and decreasing in half-log increments. If the clinical Cmax for an agent had not been determined, the highest concentration tested was 10 microM.
2.3 Cell Culture. All cells were maintained in an incubator at 37 degrees C and 5% CO2 with 95% humidity. The PDC lines were cultured according to standard operating procedures established by the NCI PDMR. All PDCs were thawed and cultured in Matrigel-coated flasks prepared with a working solution of 1X Ham's F-12 nutrient mix, without supplementation (Invitrogen, cat. 11765054), 100 U/mL penicillin-streptomycin (Invitrogen, cat. 15140122), and 2.5% Matrigel (Corning Inc., cat. 354248) for the first three passages. The 857933-349-R-J2-PDC line was cultured in 6C/Colon 1B media, which includes advanced DMEM/F-12 (Thermo Fisher Scientific, cat. 12634028), 10 mM HEPES (Thermo Fisher Scientific, cat. 15630080), 1X GlutaMAX supplement (Thermo Fisher Scientific, cat. 35050061), 0.1 mg/mL primocin (InvivoGen, cat. ant-pm-2), 10% defined fetal bovine serum, heat inactivated (HyClone Laboratories Inc., cat. SH30070.03HI), 50% L-WRN conditioned media (ATCC, cat. CRL-3276), 1.25 mM N-Acetyl-L-cysteine (Sigma-Aldrich, cat. A9165), 10 mM nicotinamide (Sigma-Aldrich, cat. N0636), 1X B-27 supplement (Thermo Fisher Scientific, cat. 17504044), 1X N-2 supplement (Thermo Fisher Scientific, cat. 17502048), 10 microM Y-27632 dihydrochloride (Tocris Bioscience, cat. 1254), and 50 ng/mL human EGF recombinant protein (Thermo Fisher Scientific, cat. PHG0311). The 485176-168-R4-J1-PDC line was cultured in Panc media, which includes all 6C/Colon 1B media components plus 100 ng/mL human FGF-10 (Thermo Fisher Scientific, cat. 100-26), 500 nM SB-431542 (Selleckchem, cat. S1067), and gastrin (Tocris, cat. 3006).
[…]

Setting [1] is: compound alone, run of 03/18/2024.

`Cc1[nH]c2ccc(F)cc2c1-c1nc2c3cccnc3c3ncccc3c2[nH]1`: the viability, T/C reads like this: (compound 0.0316 µM) 99.2% [middle of 12 runs]; (compound 0.1 µM) 99.6% [middle of 12 runs]; (compound 0.316 µM) 103% [middle of 12 runs]; (compound 1 µM) 102% [middle of 12 runs]; (compound 10 µM) 100% [middle of 12 runs]. Moreover, the IC50 runs as follows: under setting [1], greater than 10 µM; (compound alone, run of 03/26/2024) greater than 10 µM.

For `O=C(c1cc(Cc2n[nH]c(=O)c3ccccc23)ccc1F)N1CCN(C(=O)C2CC2)CC1`, the viability, T/C is 93.2% and 101% and 92.1% (compound 0.0316 µM); 92% and 98.2% and 93.7% (compound 0.1 µM); 98.1% and 94.9% and 107% (compound 0.316 µM); 101% (2×) and 99.2% (compound 1 µM); 101% and 105% and 95.4% (compound 3.16 µM); 91% and 84.7% and 87.8% (compound 10 µM). The 50% inhibitory concentration (IC50) (curve of compound) was greater than 10 µM.

With `COc1cccc2c1C(=O)c1c(O)c3c(c(O)c1C2=O)CC(O)(C(=O)CO)CC3OC1CC(N)C(O)C(C)O1` (centres undefined), the viability, T/C runs as follows: (compound 0.0316 µM) 93% and 102% and 100%; (compound 0.1 µM) 89.2% and 78.7% and 73.9%; (compound 0.316 µM) 33.4% and 33.9% and 34.3%; (compound 1 µM) 19.4% and 18.2% and 21.9%; (compound 3.16 µM) 1.94% and 2.47% and 2.18%; (compound 10 µM) 0.14% and 0.19% and 0.1%. In addition, the IC50 (curve of compound) is 0.231 µM and 0.221 µM and 0.215 µM.

As for `Cc1cnc(CNC(=O)c2c(=O)c3ccc(N4CCCN(C)CC4)nc3n3c2sc2ccccc23)cn1`, the viability, T/C by setting is: (compound 0.0316 µM) 101% [middle of 11 runs]; (compound 0.1 µM) 82.4% [middle of 11 runs]; (compound 0.316 µM) 57.1% [middle of 11 runs]; (compound 1 µM) 42.3% [middle of 11 runs]; (compound 3.16 µM) 37.6% [middle of 11 runs]; (compound 10 µM) 31.1% [middle of 11 runs]. The IC50 under setting [1] is 582 nM [middle of 11 runs].

For the molecule `CC[C@@]1(O)C(=O)OCc2c1cc1n(c2=O)Cc2cc3c(CN(C)C)c(O)ccc3nc2-1`, the viability, T/C reads like this: (compound 0.000999 µM) 104% and 102% and 101%; (compound 0.00316 µM) 105% (2×) and 93.9%; (compound 0.00999 µM) 108% and 96.2% and 102%; (compound 0.0316 µM) 80.7% and 57% and 63%; (compound 0.0999 µM) 24.7% and 19.6% and 22%; (compound 0.316 µM) 14.6% and 9.66% and 10.5%. Besides, for the setting “curve of compound”, the IC50 was 0.0593 µM and 0.0395 µM and 0.0458 µM.

With `CC1COCCN1c1cc(C2(O)CC3CCC(C2)O3)c2cnn(-c3ccn[nH]3)c2n1` (centres undefined), the viability, T/C is, setting by setting: (compound 0.0316 µM) 117% and 107% and 101%; (compound 0.1 µM) 73.7% and 86.2% and 65.1%; (compound 0.316 µM) 47.9% and 53.4% and 35.1%; (compound 1 µM) 19.1% and 20.1% and 14.9%; (compound 3.16 µM) 12.1% and 10.6% and 9.5%; (compound 10 µM) 8.52% and 8.96% and 7.33%. The IC50 (curve of compound) is 0.25 µM and 0.334 µM and 0.176 µM.

Consider `CC[C@@]1(O)C(=O)OCc2c1cc1n(c2=O)Cc2cc3c(CN(C)C)c(O)ccc3nc2-1` + Cc1cnc(CNC(=O)c2c(=O)c3ccc(N4CCCN(C)CC4)nc3n3c2sc2ccccc23)cn1, for which the 50% inhibitory concentration (IC50) is 0.0285 µM (curve of first compound, second compound 0.0316 µM); 0.016 µM (curve of first compound, second compound 0.1 µM); less than 0.000999 µM (curve of first compound, second compound 0.316 µM); less than 0.000999 µM (curve of first compound, second compound 1 µM); less than 0.000999 µM (curve of first compound, second compound 3.16 µM); less than 0.000999 µM (curve of first compound, second compound 10 µM). Besides, the viability, T/C is 114% (second compound 0.0316 µM, first compound 0.000999 µM); 103% (second compound 0.0316 µM, first compound 0.00316 µM); 107% (second compound 0.0316 µM, first compound 0.00999 µM); 44.1% (second compound 0.0316 µM, first compound 0.0316 µM); 17.8% (second compound 0.0316 µM, first compound 0.0999 µM); 11.3% (second compound 0.0316 µM, first compound 0.316 µM). For the same molecule, the viability, T/C by setting is: (second compound 0.1 µM, first compound 0.000999 µM) 76.2%; (second compound 0.1 µM, first compound 0.00316 µM) 64.3%; (second compound 0.1 µM, first compound 0.00999 µM) 64.3%; (second compound 0.1 µM, first compound 0.0316 µM) 31.4%; (second compound 0.1 µM, first compound 0.0999 µM) 20.5%; (second compound 0.1 µM, first compound 0.316 µM) 11.8%. The viability, T/C is 48.6% (second compound 0.316 µM, first compound 0.000999 µM); 42.5% (second compound 0.316 µM, first compound 0.00316 µM); 45.3% (second compound 0.316 µM, first compound 0.00999 µM); 27.6% (second compound 0.316 µM, first compound 0.0316 µM); 17% (second compound 0.316 µM, first compound 0.0999 µM); 13.9% (second compound 0.316 µM, first compound 0.316 µM). Besides, the viability, T/C is 39.8% (second compound 1 µM, first compound 0.000999 µM); 38.9% (second compound 1 µM, first compound 0.00316 µM); 29.9% (second compound 1 µM, first compound 0.00999 µM); 29.1% (second compound 1 µM, first compound 0.0316 µM); 19.1% (second compound 1 µM, first compound 0.0999 µM); 13% (second compound 1 µM, first compound 0.316 µM). The viability, T/C was 30.5% (second compound 3.16 µM, first compound 0.000999 µM); 29.8% (second compound 3.16 µM, first compound 0.00316 µM); 30.3% (second compound 3.16 µM, first compound 0.00999 µM); 25.4% (second compound 3.16 µM, first compound 0.0316 µM); 17.6% (second compound 3.16 µM, first compound 0.0999 µM); 14.7% (second compound 3.16 µM, first compound 0.316 µM). Further, the viability, T/C was 23.6% (second compound 10 µM, first compound 0.000999 µM); 30.3% (second compound 10 µM, first compound 0.00316 µM); 30.8% (second compound 10 µM, first compound 0.00999 µM); 23.9% (second compound 10 µM, first compound 0.0316 µM); 18.7% (second compound 10 µM, first compound 0.0999 µM); 15.6% (second compound 10 µM, first compound 0.316 µM).
